# Values of other authors, collected in patent US10955416B2, “Compositions for detecting mutant anaplastic lymphoma kinase in human lung cancer” (CELL SIGNALING TECHNOLOGY, INC., priority 2006, dated 2021).
# Test system: lymphoma cells
# Conditions: Marzec et al., Lab. Invest. 85(12): 1544-54 (2005); cited from earlier work
SMILES,apoptosis in lymphoma cells,proliferation in lymphoma cells
COc1cc2ncnc(Nc3ccc(O)c(Br)c3)c2cc1OC [WHI-154],induce apoptosis,suppress proliferation
COc1cc2ncnc(Nc3ccc(O)cc3)c2cc1OC [WHI-131],induce apoptosis,suppress proliferation
